Biological target: T1, EGFR (Homo sapiens, UniProt P00533)
T1 construct: Add 7 ug A431 cell lysate per well (EGFR source); endogenous in cells; host or cells: A431
Test: EGFR ELISA assay (in vitro kinase activity, EGFR captured from A431 cell lysate)
Format: biochemical
Design: concentration or dose not given beside the values
Summary of the method: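 EGFR from A431 lysate was captured on plates coated with anti-EGFR antibody. Compounds were added 30 min before a 5 min phosphorylation with 3 µM ATP/5 mM MnCl2, which was stopped with 20 mM EDTA. Phosphotyrosine was detected with rabbit anti-phosphotyrosine, then a peroxidase-conjugated secondary and ABTS/H2O2, read at 410 nm.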

T1 sequence (P00533 25-1210): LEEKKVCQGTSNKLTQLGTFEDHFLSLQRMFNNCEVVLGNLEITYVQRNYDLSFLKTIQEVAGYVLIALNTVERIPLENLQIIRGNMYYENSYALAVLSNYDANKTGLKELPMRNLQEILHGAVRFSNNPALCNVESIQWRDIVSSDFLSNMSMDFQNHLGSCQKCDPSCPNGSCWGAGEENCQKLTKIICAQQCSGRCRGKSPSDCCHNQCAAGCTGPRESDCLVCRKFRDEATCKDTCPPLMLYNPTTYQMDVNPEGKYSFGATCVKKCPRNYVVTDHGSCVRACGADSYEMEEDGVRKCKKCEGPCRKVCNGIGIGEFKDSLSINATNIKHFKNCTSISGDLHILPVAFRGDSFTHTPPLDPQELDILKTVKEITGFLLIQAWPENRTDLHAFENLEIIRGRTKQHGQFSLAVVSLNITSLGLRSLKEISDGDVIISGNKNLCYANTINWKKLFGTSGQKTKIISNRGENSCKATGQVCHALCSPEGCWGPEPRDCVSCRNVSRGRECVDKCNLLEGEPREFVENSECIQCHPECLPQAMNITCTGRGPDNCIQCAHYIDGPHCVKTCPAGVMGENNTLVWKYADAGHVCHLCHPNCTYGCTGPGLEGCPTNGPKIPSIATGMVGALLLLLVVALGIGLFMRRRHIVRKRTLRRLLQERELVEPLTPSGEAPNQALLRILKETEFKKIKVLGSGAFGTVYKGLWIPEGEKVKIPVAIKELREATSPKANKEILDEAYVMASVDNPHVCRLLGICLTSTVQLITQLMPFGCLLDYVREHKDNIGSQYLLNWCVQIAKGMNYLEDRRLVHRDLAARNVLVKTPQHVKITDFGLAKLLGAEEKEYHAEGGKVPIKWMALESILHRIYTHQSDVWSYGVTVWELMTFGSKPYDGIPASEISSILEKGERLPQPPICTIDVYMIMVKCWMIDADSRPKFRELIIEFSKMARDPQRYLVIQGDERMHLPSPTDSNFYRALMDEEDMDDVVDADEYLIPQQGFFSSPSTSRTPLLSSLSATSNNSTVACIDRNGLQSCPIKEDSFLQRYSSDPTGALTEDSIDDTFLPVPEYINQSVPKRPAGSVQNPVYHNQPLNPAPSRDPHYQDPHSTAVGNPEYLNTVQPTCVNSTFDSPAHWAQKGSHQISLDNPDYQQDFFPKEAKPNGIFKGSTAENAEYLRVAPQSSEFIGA

**Q.** For `Cc1cc(C=C2C(=O)Nc3ccc(CCCl)cc32)cc(C)c1O` [10722/G07], which “Biochem EGFR %Inhibition” value is on record?
**A.** Its value is -32.5%.

**Q.** How did the “Biochem EGFR %Inhibition” value turn out when `O=C1Nc2ccc(S(=O)(=O)Nc3ccc(C(F)(F)F)cc3)cc2C1=Cc1ccccc1Br` [10723/E07] was run?
**A.** Its value is 38.1%.

**Q.** With `Cc1cc(C=C2C(=O)Nc3ccc(Br)c(C)c32)ccc1O` [10723/C06] as the molecule, how does the “Biochem EGFR %Inhibition” value read?
**A.** The value was -4.5%.

**Q.** How did the “Biochem EGFR %Inhibition” value turn out when `Cc1c(Br)ccc2c1C(=Cc1ccc(O)c(O)c1O)C(=O)N2` [10723/C02] was run?
**A.** Its value is 73.6%.

**Q.** `O=C1Nc2ccc(CCCl)cc2C1=Cc1csc([N+](=O)[O-])c1` [10722/G09] was tested. Which “Biochem EGFR %Inhibition” value did it give?
**A.** Its value is -5.9%.

**Q.** Which “Biochem EGFR %Inhibition” value does the source give for `COc1cccc(C=C2C(=O)Nc3ccc(S(=O)(=O)Nc4ccc(C(F)(F)F)cc4)cc32)c1O` [10723/E03] here?
**A.** Its value is 8.3%.

**Q.** How did the “Biochem EGFR %Inhibition” value turn out when `O=C1Nc2c(Br)cc(Br)cc2C1=Cc1ccc(O)cc1O` [10723/A08] was run?
**A.** The value was -2.1%.

**Q.** How did the “Biochem EGFR %Inhibition” value turn out when `CC(=O)Oc1ccc(C=C2C(=O)Nc3ccc(CCCl)cc32)cc1OC(C)=O` [10723/G05] was run?
**A.** Its value is 1.3%.

**Q.** For `O=C1Nc2ccc(S(=O)(=O)Nc3ccc(C(F)(F)F)cc3)cc2C1=Cc1ccc(F)cc1` [10717/E05], which “Biochem EGFR %Inhibition” value is on record?
**A.** Its value is 22.4%.

**Q.** Which “Biochem EGFR %Inhibition” value does the source give for `O=C1Nc2ccc(CCCl)cc2C1=Cc1ccc(O)c(O)c1O` [10723/G02] here?
**A.** The value was 90.8%.

**Q.** With `O=C1Nc2ccc(CCCl)cc2C1=Cc1ccc([N+](=O)[O-])s1` [10722/G04] as the molecule, how does the “Biochem EGFR %Inhibition” value read?
**A.** Its value is -13.3%.

**Q.** For `O=C1Nc2ccc(S(=O)(=O)Nc3ccc(C(F)(F)F)cc3)cc2C1=Cc1ccc(Br)cc1` [10717/E08], which “Biochem EGFR %Inhibition” value is on record?
**A.** Its value is 28.2%.

**Q.** How did the “Biochem EGFR %Inhibition” value turn out when `O=C1Nc2ccc(I)cc2C1=Cc1ccc(O)cc1O` [10723/B08] was run?
**A.** The value was -0.4%.

**Q.** For `COc1ccc(C=C2C(=O)Nc3ccc(CCCl)cc32)c(O)c1` [10723/G09], which “Biochem EGFR %Inhibition” value is on record?
**A.** Its value is -32.6%.

**Q.** How did the “Biochem EGFR %Inhibition” value turn out when `Cc1cc(C=C2C(=O)Nc3ccc(S(=O)(=O)Nc4ccc(C(F)(F)F)cc4)cc32)ccc1O` [10723/E06] was run?
**A.** The value was 11.5%.

**Q.** `CNS(=O)(=O)c1ccc2c(c1)C(=Cc1cccc(OC)c1O)C(=O)N2` [10723/D03] was tested. Which “Biochem EGFR %Inhibition” value did it give?
**A.** The value was 33.5%.

**Q.** Which “Biochem EGFR %Inhibition” value does the source give for `Cc1cc(C=C2C(=O)Nc3c(Br)cc(Br)cc32)ccc1O` [10723/A06] here?
**A.** The value was 20.1%.

**Q.** For `O=C1Nc2ccc(I)cc2C1=Cc1cccc(Br)c1` [10723/B10], which “Biochem EGFR %Inhibition” value is on record?
**A.** The value was 1.8%.

**Q.** With `CNS(=O)(=O)c1ccc2c(c1)C(=Cc1ccc(O)cc1O)C(=O)N2` [10723/D08] as the molecule, how does the “Biochem EGFR %Inhibition” value read?
**A.** The value was 4.9%.

**Q.** With `CC(=O)Oc1ccc(C=C2C(=O)Nc3ccc(I)cc32)cc1OC(C)=O` [10723/B05] as the molecule, how does the “Biochem EGFR %Inhibition” value read?
**A.** Its value is 36.4%.

**Q.** Which “Biochem EGFR %Inhibition” value does the source give for `Cc1c(Br)ccc2c1C(=Cc1cc(O)c(O)c(Br)c1)C(=O)N2` [10723/C04] here?
**A.** The value was 23.5%.

**Q.** With `O=C1Nc2ccc(S(=O)(=O)Nc3ccc(C(F)(F)F)cc3)cc2C1=Cc1cc(O)c(O)c(Br)c1` [10723/E04] as the molecule, how does the “Biochem EGFR %Inhibition” value read?
**A.** The value was 59.8%.
